Square brackets hold non-standard residues; d marks the D form. Peptide text beside a SMILES is read from it.
Target: T1, recombinant FABP3 (Homo sapiens, UniProt P05413)
T1 construct: made in house; host or cells: Escherichia coli BL21 (DE3)
Assay: Microscale thermophoresis (MST) binding to NT-650-NHS-labeled FABP3
Details: 20 nM labeled FABP3; peptide 500 µM to 0.0153 µM, two-fold dilutions; PBS-tween 20 pH 7.4; 25 °C; 40% MST power; 1:1 fit; mean ± SD of three independent experiments
Description: For the binding affinity measurements between the recombinant FABP3 and the A-CooP, its variants, and the control peptide, we used the microscale thermophoresis. […] For these analyses, FABP3 was labeled with an NT-650-NHS fluorescence. Two-fold serially diluted peptides ranging from 500 µM to 0.0153 µM were titrated against a constant FABP3 concentration (20 nM). The binding events were generated following changes in fluorescence (ΔFnorm) against peptide concentrations. Subsequently, the equilibrium dissociation constant (KD) was calculated using a 1:1 fit model from the law of mass action. The MST binding affinities (KD values) are represented in a bar graph (Figure 4B). The smallest KD value equals the best affinity, and the highest value is the lowest affinity. […] The changes in fluorescence (ΔFnorm) were normalized to the bound fraction (Figure 4C). The data points towards 1 were considered bound fractions, while data points less than 1 represented the unbound fractions.
FABP3 was labeled with a second-generation red amine-reactive NT-650-NHS fluorescent dye using the Nanotemper labeling kit (MO-L011; Nanotemper, https://nanotempertech.com/). The protein/dye concentration ratio and volume ratio were 1:3 and 1:1, respectively, in accordance with the manufacturer’s instructions. The actual concentration and degree of labeling (DOL) were determined using the extinction coefficient Ɛ280 = 18450 M^−1 cm^−1 for FABP3 and Ɛ650 =195000 M^−1 cm^−1 for the NT650 dye. Using the correction factor of 0.04 at 280 nm, the DOL for all labeling reactions was calculated according to manufacturer’s instructions. Binding experiments were carried out in a PBS-tween 20 buffer (10 mM Na2HPO4, 140 mM NaCl, 2.7 mM KCl, 0.05% tween 20, pH 7.4). The binding assay was performed with a fixed concentration (20 nM) of the fluorescently labeled FABP3 (target) and two-fold serially diluted decreasing concentrations (500 µM to 0.0153 µM) of the unlabeled A-CooP variants (ligand). The reaction mixture of 16 serial diluents of A-CooP or its analogues and FABP3 were filled into the capillary tubes (Nanotemper, MO-K022) and loaded in the Monolith NT 115 instrument accordingly. All experiments were carried out at 25 °C, 40% MST power (medium), and 60% LED power. Binding assay and measurements were performed in triplicates for each experimental setup.

T1 sequence (P05413 whole entry): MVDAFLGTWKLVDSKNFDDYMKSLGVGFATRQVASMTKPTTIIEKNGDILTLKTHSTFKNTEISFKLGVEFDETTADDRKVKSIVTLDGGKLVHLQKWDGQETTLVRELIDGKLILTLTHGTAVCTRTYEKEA

| Compound | Kd |
| --- | --- |
| CC(C)C[C@H](NC(=O)CNC(=O)[C@H](CO)NC(=O)[C@H](CC(C)C)NC(=O)CNC(=O)[C@H](CS)NC(=O)[C@H](C)N)C(=O)NCC(=O)N[C@H](C(=O)N[C@@H](C)C(=O)N[C@@H](CCCCN)C(N)=O)C(C)C [A-CooP-K] (H-ACGLSGLGVAK-NH2) | 70 ± 10 nM |
| CC(C)C[C@H](NC(=O)CNC(=O)[C@H](CO)NC(=O)[C@H](CC(C)C)NC(=O)CNC(=O)[C@H](CS)NC(=O)[C@H](C)N)C(=O)NCC(=O)N[C@H](C(=O)N[C@@H](C)C(N)=O)C(C)C [A-CooP] (H-ACGLSGLGVA-NH2) | 2180 ± 1150 nM |
| CC(C)C[C@H](NC(=O)CNC(=O)[C@H](CO)NC(=O)[C@H](CC(C)C)NC(=O)[C@H](C)NC(=O)[C@H](CS)NC(=O)[C@H](C)N)C(=O)NCC(=O)N[C@H](C(=O)N[C@@H](C)C(N)=O)C(C)C [A-[Ala^2]CooP] (H-ACALSGLGVA-NH2) | 90 ± 70 nM |
| CC(C)C[C@H](NC(=O)CNC(=O)[C@H](CO)NC(=O)[C@H](C)NC(=O)CNC(=O)[C@H](CS)NC(=O)[C@H](C)N)C(=O)NCC(=O)N[C@H](C(=O)N[C@@H](C)C(N)=O)C(C)C [A-[Ala^3]CooP] (H-ACGASGLGVA-NH2) | 250 ± 140 nM |
| CC(C)C[C@H](NC(=O)CNC(=O)[C@H](CS)NC(=O)[C@H](C)N)C(=O)N[C@@H](CO)C(=O)NCC(=O)N[C@@H](C)C(=O)NCC(=O)N[C@H](C(=O)N[C@@H](C)C(N)=O)C(C)C [A-[Ala^6]CooP] (H-ACGLSGAGVA-NH2) | 190 ± 30 nM |

Other lines, results leading:

| Kd | Compound |
| --- | --- |
| 133000 ± 75000 nM | CC(C)C[C@H](NC(=O)CNC(=O)[C@H](CO)NC(=O)[C@H](CC(C)C)NC(=O)CNC(=O)[C@H](CS)NC(=O)[C@H](C)N)C(=O)N[C@@H](C)C(=O)N[C@H](C(=O)N[C@@H](C)C(N)=O)C(C)C [A-[Ala^7]CooP] (H-ACGLSGLAVA-NH2) |
| 120 ± 50 nM | CC(C)C[C@H](NC(=O)CNC(=O)[C@H](CO)NC(=O)[C@H](CC(C)C)NC(=O)CNC(=O)[C@H](CS)NC(=O)[C@H](C)N)C(=O)NCC(=O)N[C@@H](C)C(=O)N[C@@H](C)C(N)=O [A-[Ala^8]CooP] (H-ACGLSGLGAA-NH2) |
| 630 ± 130 nM | CC(C)C[C@H](NC(=O)CNC(=O)[C@H](CO)NC(=O)[C@H](CC(C)C)NC(=O)CNC(=O)[C@H](CS)NC(=O)[C@H](C)NC(=O)[C@@H](N)CCCCN)C(=O)NCC(=O)N[C@H](C(=O)N[C@@H](C)C(N)=O)C(C)C [KA-CooP] (H-KACGLSGLGVA-NH2) |
| 24000 ± 13000 nM | CC(C)C[C@@H](NC(=O)CNC(=O)[C@H](NC(=O)[C@@H](C)N)C(C)C)C(=O)NCC(=O)N[C@H](CO)C(=O)N[C@H](CC(C)C)C(=O)NCC(=O)N[C@H](CS)C(=O)N[C@H](C)C(N)=O [RI-A-CooP] (H-[dA][dV]G[dL]G[dS][dL]G[dC][dA]-NH2) |
